Assay results: patent US20090238768A1, “MULTIMERIC MAGNETIC RESONANCE CONTRAST AGENTS” (priority 2005, published 2009)
Where two headings read alike, the source gives them in different places.

What was measured:
[1] = longitudinal relaxivity rl in human blood plasma at 37° C.; type: physicochemical; settings: for longitudinal relaxivity rl calculated for a field of 3 T: calculated from the measurements at lower fields
Protocol: Compound 23 was dissolved in human blood plasma and the longitudinal relaxivity rl was measured at 37° C. at the following fields:
Compound 13 was dissolved in human blood plasma and the longitudinal relaxivity rl was measured at 37° C. at the following fields:
Compound 36 was dissolved in human blood plasma and the longitudinal relaxivity rl was measured at 37° C. at the following fields:
Compound 40 was dissolved in human blood plasma and the longitudinal relaxivity rl was measured at 37° C. at the following fields:
Compound 43 was dissolved in human blood plasma and the longitudinal relaxivity rl was measured at 37° C. at the following fields:
Compound 46 was dissolved in human blood plasma and the longitudinal relaxivity rl was measured at 37° C. at the following fields: […]

[2] = 3 T, human blood plasma, 37° C., published data; cited from earlier work

| Molecule | longitudinal relaxivity rl ([1]; 0.235 T) | longitudinal relaxivity rl ([1]; 0.47 T) | longitudinal relaxivity rl ([1]; 1.41 T) | longitudinal relaxivity rl calculated for a field of 3 T ([1]; 3 T) | also measured |
| --- | --- | --- | --- | --- | --- |
| Cc1c(C(=O)N(C)c2cccc(NC(=O)CN3CCN4CCN5CCN(CC3)CC(=O)[O][Gd]([O]C(=O)C4)[O]C(=O)C5)c2)c(C)c(C(=O)N(C)c2cccc(NC(=O)CN3CCN4CCN5CCN(CC3)CC(=O)[O][Gd]([O]C(=O)C4)[O]C(=O)C5)c2)c(C)c1C(=O)N(C)c1cccc(NC(=O)CN2CCN3CCN4CCN(CC2)CC(=O)[O][Gd]([O]C(=O)C3)[O]C(=O)C4)c1 [Compound 36, gadolinium derivative of 2,4,6-trimethylbenzene-1,3,5-tris-[(DO3A-(3-acetamidophenyl))-N-methyl-carboxamide]] | 9.3 mM^1s^1 | 8.8 mM^1s^1 | 7.3 mM^1s^1 | 8.5 mM^1s^1 | – |
| Cc1c(C(=O)N(C)c2cccc(NC(=O)C(C)N3CCN4CCN5CCN(CC3)CC(=O)[O][Gd]([O]C(=O)C5)[O]C(=O)C4)c2)c(C)c(C(=O)N(C)c2cccc(NC(=O)C(C)N3CCN4CCN5CCN(CC3)CC(=O)[O][Gd]([O]C(=O)C5)[O]C(=O)C4)c2)c(C)c1C(=O)N(C)c1cccc(NC(=O)C(C)N2CCN3CCN4CCN(CC2)CC(=O)[O][Gd]([O]C(=O)C4)[O]C(=O)C3)c1 (stereo not shown) [Compound 40] | 10.1 mM^1s^1 | 8.6 mM^1s^1 | 9.1 mM^1s^1 | 9 mM^1s^1 | – |
| Cc1c(C(=O)N(C)c2cccc(N(C)C(=O)C(C)N3CCN4CCN5CCN(CC3)CC(=O)[O][Gd]([O]C(=O)C5)[O]C(=O)C4)c2)c(C)c(C(=O)N(C)c2cccc(N(C)C(=O)C(C)N3CCN4CCN5CCN(CC3)CC(=O)[O][Gd]([O]C(=O)C5)[O]C(=O)C4)c2)c(C)c1C(=O)N(C)c1cccc(N(C)C(=O)C(C)N2CCN3CCN4CCN(CC2)CC(=O)[O][Gd]([O]C(=O)C4)[O]C(=O)C3)c1 (stereo not shown) [Compound 46] | 10.9 mM^1s^1 | 10.1 mM^1s^1 | 8.9 mM^1s^1 | 9 mM^1s^1 | – |
| CNC[C@H](O)[C@@H](O)[C@H](O)[C@H](O)CO.CNC[C@H](O)[C@@H](O)[C@H](O)[C@H](O)CO.O=C([O-])CN(CCN(CC(=O)[O-])CC(=O)O)CCN(CC(=O)[O-])CC(=O)O.[Gd+3] [Magnevist] | – | – | – | – | longitudinal relaxivity rl [2]: 3.3 mM^1s^1 |
| CNC[C@H](O)[C@@H](O)[C@H](O)[C@H](O)CO.CNC[C@H](O)[C@@H](O)[C@H](O)[C@H](O)CO.O=C([O-])CN(CCN(CC(=O)[O-])CC(=O)O)CCN(CC(=O)O)C(COCc1ccccc1)C(=O)[O-].[Gd+3] (stereo not shown) [Multihance] | – | – | – | – | longitudinal relaxivity rl [2]: 6.3 mM^1s^1 |
| gadolinium derivative of 1,3,5-tris-(N-(DO3A-acetamido)-N-methyl-4-amino-2-methyl-phenyl)-[1,3,5]triazinane-2,4,6-trione [Compound 23] | – | – | – | – | longitudinal relaxivity rl ([1]; 0.25 T): 10.7 mM⁻¹ s⁻¹; longitudinal relaxivity rl ([1]; 1.5 T): 11.6 mM^1s^1; longitudinal relaxivity rl ([1]; 2.35 T): 10.1 mM^1s^1; longitudinal relaxivity rl ([1]; 3 T): 9.9 mM^1s^1 |
| gadolinium derivative of 2,4,6-trimethylbenzene-1,3,5-tris-[N-methyl-((2-DO3A-propyl)-3-(N′-methyl-amidophenyl))-carboxamide)] [Compound 43] | 12 mM^1s^1 | 10.6 mM^1s^1 | 9 mM^1s^1 | 8.2 mM^1s^1 | – |
| gadolinium derivative of benzene-1,3,5-tris-[((DO3A-acetamido)-3-(N′-methylamido-phenyl))-carboxamide)] [Compound 13] | – | – | – | 9.0 mM^1s^1 | longitudinal relaxivity rl ([1]; 1.5 T): 9.2 mM^1s^1; longitudinal relaxivity rl ([1]; 2.35 T): 9.5 mM^1s^1 |
